# Laboratory results from PMC8512853, “Synthesis, Bioactivity, Pharmacokinetic and Biomimetic Properties of Multi-Substituted Coumarin Derivatives” (Molecules, 2021).
# Columns and labels:
# [1] = ABTS radical scavenging assay; conditions: 6 min
# Protocol: The ABTS radical cation scavenging assay is a decolorization assay frequently used as an antioxidant activity estimation protocol. […] The absorbance is measured at 734 nm and the antioxidant capacity is compared to a standard antioxidant solution, such as ascorbic acid.
# For the evaluation of antioxidant activity, the scavenging capacities of all samples were measured via the ABTS assay, as previously described by Kontogiorgis et al. with some modifications. Briefly, an ethanolic standard ABTS solution (7 mM) was prepared by the addition of ABTS salt and potassium persulfate. […] Each sample was diluted in DMSO and tested in triplicate. The tested mixture contained 10–20 µL of sample and 990–980 µL of the ABTS solution, for a total volume of 1 ml. Blank samples contained equal amounts of DMSO instead of the coumarin analogues, and ascorbic acid was used as a reference sample for the final evaluation of the ABTS scavenging capacity. All mixtures were stored at room temperature to allow decolorization and measured after 6 min. The percentage reduction of the ABTS radical was evaluated according to the following Equation (3):(3) % Reduction=Control OD (mean)−Sample OD (mean)/Control OD (mean)×100
# [2] = MTT cell viability assay, HaCaT; format: cell-based, human; conditions: human, HaCaT cells, 100 μΜ, 24 h
# Text: The MTT assay (3- [4,5-dimethylthiazol-2-yl] -2,5 diphenyl tetrazole) is based on the conversion of MTT to formazan crystals by living cells, which determines mitochondrial activity. Since for most cell populations total mitochondrial activity is related to the number of viable cells, this assay is widely used to measure the in vitro cytotoxic effects of drugs on various cell lines or primary cells. The principle of the MTT assay is that for most viable cells the mitochondrial activity is stable, and therefore, an increase or decrease in the number of viable cells is linearly related to mitochondrial activity. The mitochondrial activity of the cells is reflected by the conversion of the MTT tetrazole salt to formazan crystals (bright purple), which can be solubilized (in this protocol with DMSO) for homogeneous measurement. Thus, any increase or decrease in the number of viable cells can be detected by measuring the formazan concentration reflected in the optical density (OD) measurement at 540 nm with a reference absorption of 720 nm.
# All the compounds were tested for their cytotoxic activity against blank and control samples in the human epidermal keratinocyte line (HaCaT), at the concentration of 100 μΜ, and the results are presented in Table 4.
# This protocol was used for the evaluation of cell viability and all the cell lines. It must be noted that this assay describes the count of cells that remain alive after the treatment. For the experimental procedure a standard solution of MTT 1mg/mL in PBS was prepared which after filtration ([…] filter (Millipore, Carrigtwohill, Ireland)) was stored in the dark (4–8 °C) until use. In a 96-well plate, HaCaT, A549 and A375 cells were seeded in a number of 30 × 10^4 cells/well for each evaluation series respectively. The cells were incubated (37 °C, 5% CO2) for 24 h, followed by the addition of the tested analogues (100 μM, diluted in DMEM) and another 24-h incubation. Next, appropriate amount of MTT was added in the tested wells and the plate returned to the incubator for the next 4 h for the formation of the formazan crystals. The formazan crystals were then redissolved by adding DMSO (100 μL) and stirring lightly for 40 min, after which the absorbance was measured in a plate reader at 540 nm with a reference absorbance of 720 nm.
# All samples were tested in triplicate, against a control (only cells), blank (no cells), and positive control (100 μM standard silibinin solution was used as a “cell-killing” standard).
# [3] = IAM chromatography (IAM.PC.DD.2 column) and estimated human oral absorption; format: in vitro ADME; conditions: for %HOA estimated human oral absorption: Equation (1) from logkw and physicochemical properties; for logkw (IAM retention factor): pH 7.40, IAM.PC.DD.2, intercept at pure aqueous phase
# Protocol: The immobilized artificial membrane (IAM) chromatographic behavior of the 25 novel coumarin derivatives was studied. IAM stationary phases consisting of monolayers of phospholipids (e.g., phosphatidylcholine, PC) immobilized on a propylamine–silica support can simulate interactions of chemicals with cell membranes.
# Using an IAM.PC.DD2 column (Regis Technologies) as the stationary phase with PBS as the mobile phase at pH = 7.40, and a flow rate of 3 mL/min in the presence of acetonitrile fractions (C%) of 10%, 15%, 20%, 25%, and 30%, a logkC% value was obtained via the retention time for each concentration of CH3CN. Retention factors were then used to plot logkC% as a function of acetonitrile fraction. The intercept of the linear regression corresponds to the logkw, corresponding to pure aqueous phase.
# (1) % HOA=100/1+10^−(2.17+0.88*logkw−0.006*MW−0.83*A−0.53*F^*++1.18*F^*−)
# The physicochemical and biomimetic properties of the new coumarin analogues were studied using liquid chromatography (HPLC) in 220–230 nm Two types of chromatographic columns were used: (i) immobilized artificial membrane (IAM) ([…].PC.DD.2, Regis Technologies) column and (ii) human serum albumin (HSA) (CHIRAL PAK) column.
# The training set consisted of 25 neutral and slightly acidic compounds. Their IAM retention factors were measured at pH 7.40 on a IAM.PC.DD.2 column. The mobile phase consisted of acetonitrile solvent (CH3CN) in various concentrations (10%, 15%, 20%, 25%, 30%) and a flow rate of 3 mL/min was selected. Their HSA retention factors were measured at pH 7.00 on HSA column. The mobile phase consisted of acetonitrile solvent (CH3CN) in 10% concentration and a flow rate of 1 mL/min was selected.
# The different pH values (7.00 for HSA and 7.40 for IAM) were measured with an electronic pH meter MP125 and were achieved by preparing suitable buffers of phosphates and chlorides (0.12 g KH2PO4, 0.72 g Na2HPO4·2H2O, 4.00 g NaCl and 0.10 g KCl). Sodium citrate solution was used to determine the dead time, which was deducted from the results at the end of measurements. The elution time of each coumarin analogue was measured at least three times. Retention times were converted into logk values, which represent the logarithm of the retention indexes, using Equation (8). (8) logk=log(tr−t0/t0) where tr is the retention time of the coumarin derivative and t0 is the dead time.
Structure (SMILES),ABTS^•+ % (100 μΜ) [1],"viability at 24 h, 100 μM [2]",%HOA estimated human oral absorption [3],logkw (IAM retention factor) [3]
"Cc1c(-c2ccc(O)cc2)c(=O)oc2ccccc12 [Compound 4h, 3-(4-hydroxyphenyl)-4-methyl-chromen-2-one]",8.6%,100%,99.8%,3.34
"Cc1c(-c2cccc(F)c2)c(=O)oc2cccc(O)c12 [Compound 4e, 3-(3-fluorophenyl)-5-hydroxy-4-methyl-chromen-2-one]",69.2%,92.4%,99.9%,3.23
"CC(=O)Oc1cccc2oc(=O)c(-c3cccc(F)c3)c(C)c12 [Compound 3e, 5-acetyloxy-3-(3-fluorophenyl)-4-methyl-chromen-2-one]",2.0%,96.5%,99.7%,2.47
"Cc1c(-c2ccc(O)cc2)c(=O)oc2ccc(Cl)cc12 [Compound 4j, 6-chloro-3-(4-hydroxyphenyl)-4-methyl-chromen-2-one]",no,73%,99.5%,3.41
"CC(=O)Oc1ccc(-c2c(C)c3ccccc3oc2=O)cc1 [Compound 3h, 3-(4-acetyloxyphenyl)-4-methyl-chromen-2-one]",no,96.2%,99.7%,2.48
"CC(=O)Oc1cccc2oc(=O)c(-c3ccccc3F)c(C)c12 [Compound 3d, 5-acetyloxy-3-(2-fluorophenyl)-4-methyl-chromen-2-one]",no,100%,99.7%,2.56
"CC(=O)Oc1ccc(-c2c(C)c3cc(Br)cc(Br)c3oc2=O)cc1OC(C)=O [Compound 3o, 3-(4,5-diacetyloxyphenyl)-6,8-dibromo-4-methyl-chromen-2-one]",no,100%,99.6%,3.79
"CC(=O)Oc1ccc(-c2c(C)c3ccccc3oc2=O)cc1OC(C)=O [Compound 3l, 3-(4,5-diacetyloxyphenyl)-4-methyl-chromen-2-one]",2.8%,100%,99.4%,2.43
"Cc1c(-c2ccccc2F)c(=O)oc2cccc(O)c12 [Compound 4d, 3-(2-fluorophenyl)-5-hydroxy-4-methyl-chromen-2-one]",73.3%,100%,100%,4.69
"CC(=O)Oc1ccc(-c2c(C)c3cc(Cl)ccc3oc2=O)cc1 [Compound 3j, 3-(4-acetyloxyphenyl)-6-chloro-4-methyl-chromen-2-one]",no,90.5%,99.9%,3.06
"CC(=O)Oc1ccc(-c2c(C)c3cc(Br)ccc3oc2=O)cc1OC(C)=O [Compound 3m, 3-(4,5-diacetyloxyphenyl)-6-bromo-4-methyl-chromen-2-one]",no,100%,99.6%,3.21
"Cc1c(-c2cccc(Cl)c2)c(=O)oc2cccc(O)c12 [Compound 4b, 3-(3-chlorophenyl)-5-hydroxy-4-methyl-chromen-2-one]",49.2%,100%,99.9%,3.73
"CC(=O)Oc1ccc(-c2c(C)c3cc(Br)cc(Br)c3oc2=O)cc1 [Compound 3k, 3-(4-acetyloxyphenyl)-6,8-dibromo-4-methyl-chromen-2-one]",no,100%,99.9%,3.91
"Cc1c(-c2ccc(F)cc2)c(=O)oc2cccc(O)c12 [Compound 4f, 3-(4-fluorophenyl)-5-hydroxy-4-methyl-chromen-2-one]",64.2%,100%,99.7%,2.62
"Cc1c(-c2ccccc2Cl)c(=O)oc2cccc(O)c12 [Compound 4a, 3-(2-chlorophenyl)-5-hydroxy-4-methyl-chromen-2-one]",56.5%,100%,100%,4.09
"CC(=O)Oc1cccc2oc(=O)c(-c3cccc(Cl)c3)c(C)c12 [Compound 3b, 5-acetyloxy-3-(3-chlorophenyl)-4-methyl-chromen-2-one]",1.9%,100%,99.8%,2.88
"Cc1c(-c2ccc(O)cc2)c(=O)oc2c(Br)cc(Br)cc12 [Compound 4k, 6,8-dibromo-3-(4-hydroxyphenyl)-4-methyl-chromen-2-one]",27.8%,100%,,
"CC(=O)Oc1cccc2oc(=O)c(-c3ccc(Cl)cc3)c(C)c12 [Compound 3c, 5-acetyloxy-3-(4-chlorophenyl)-4-methyl-chromen-2-one]",15.0%,100%,99.9%,3.05
"Cc1c(-c2ccc(Cl)cc2)c(=O)oc2cccc(O)c12 [Compound 4c, 3-(4-chlorophenyl)-5-hydroxy-4-methyl-chromen-2-one]",65.2%,63.7%,100%,4.53
"CC(=O)Oc1cccc2oc(=O)c(-c3ccccc3Cl)c(C)c12 [Compound 3a, 5-acetyloxy-3-(2-chlorophenyl)-4-methyl-chromen-2-one]",no,100%,100%,3.58
